According to ChEMBL document CHEMBL4396971, “Discovery of potent and orally bioavailable indazole-based glucagon receptor antagonists for the treatment of type 2 diabetes” (Bioorg Med Chem Lett, 2019):
Values belong to the compound of their own block, whether it stands above or below them. Active and inactive are the calls of the source. The calls are words filed in the database; no cut-off is given here.

Legend:
[1] = Stability in mouse liver microsomes assessed as parent compound remaining at 1 uM incubated for 10 mins; assay type: ADME, Microsome; details: liver microsomes, read-out: Stability
[2] = Stability in human liver microsomes assessed as parent compound remaining at 1 uM incubated for 10 mins; assay type: ADME, Microsome; details: read-out: Stability
[3] = Stability in dog liver microsomes assessed as parent compound remaining at 1 uM incubated for 10 mins; assay type: ADME, Canis lupus familiaris, Microsome; details: for remaining at 10 min, 1 µM: liver microsomes, read-out: Stability
[4] = Stability in rat liver microsomes assessed as parent compound remaining at 1 uM incubated for 10 mins; assay type: ADME, Microsome; details: read-out: Stability
[5] = target: T1, Cytochrome P450 3A4 (Homo sapiens, UniProt P08684); assay: Inhibition of CYP3A4 (unknown origin) using midazolam as substrate; assay type: ADME
[6] = tested on: Canis familiaris; assay: Antidiabetic activity in Beagle dog assessed as reduction in blood glucose level at 10 mg/kg, po administered via gavage as single dose 90 mins prior to glucagon challenge measured up to 60 mins post glucagon challenge by glucometer analysis; assay type: functional, organism-based; details: Canis lupus familiaris
[7] = Half life in Sprague-Dawley rat at 2 mg/kg, iv; assay type: ADME, organism-based; details: in vivo
[8] = AUClast in Sprague-Dawley rat at 2 mg/kg, iv or 10 mg/kg, po; assay type: ADME, organism-based; details: in vivo
[9] = Half life in Sprague-Dawley rat at 10 mg/kg, po; assay type: ADME, organism-based; details: in vivo
[10] = Cmax in dog at 2 mg/kg, iv or 10 mg/kg, po; assay type: ADME, organism-based, Canis lupus familiaris; details: in vivo
[11] = target: Cytochrome P450 2C9 (Homo sapiens, UniProt P11712); assay: Inhibition of CYP2C9 (unknown origin) using tolbutamide as substrate; assay type: ADME
[12] = target: Cytochrome P450 2C19 (Homo sapiens, UniProt P33261); assay: Inhibition of CYP2C19 (unknown origin) using S-Mephenytoin as substrate; assay type: ADME
[13] = Volume of distribution at steady state in dog at 2 mg/kg, iv or 10 mg/kg, po; assay type: ADME, organism-based, Canis lupus familiaris; details: in vivo, read-out: Vdss
[14] = Cmax in Sprague-Dawley rat at 2 mg/kg, iv or 10 mg/kg, po; assay type: ADME, organism-based; details: in vivo
[15] = target: Cytochrome P450 2D6 (Homo sapiens, UniProt P10635); assay: Inhibition of CYP2D6 (unknown origin) using dextromethorphan as substrate; assay type: ADME
[16] = Oral bioavailability in Sprague-Dawley rat at 10 mg/kg; assay type: ADME, organism-based; details: in vivo
[17] = Half life in C57 mouse at 5 mg/kg, iv; assay type: ADME, organism-based; details: in vivo
[18] = Volume of distribution at steady state in C57 mouse at 5 mg/kg, iv or 20 mg/kg, po; assay type: ADME, organism-based; details: in vivo, read-out: Vdss
[19] = Cmax in C57 mouse at 5 mg/kg, iv or 20 mg/kg, po; assay type: ADME, organism-based; details: in vivo
[20] = Antagonist activity at GCGR in dog hepatocytes assessed as inhibition of glucagon-induced cAMP by LANCE TR-FRET assay; assay type: cell-based, Canis lupus familiaris
[21] = Oral bioavailability in dog at 10 mg/kg; assay type: ADME, organism-based, Canis lupus familiaris; details: in vivo
[22] = Half life in dog at 2 mg/kg, iv; assay type: ADME, organism-based, Canis lupus familiaris; details: in vivo
[23] = AUClast in C57 mouse at 5 mg/kg, iv or 20 mg/kg, po; assay type: ADME, organism-based; details: in vivo
[24] = Volume of distribution at steady state in Sprague-Dawley rat at 2 mg/kg, iv or 10 mg/kg, po; assay type: ADME, organism-based; details: in vivo, read-out: Vdss
[25] = target: T2, Cytochrome P450 1A2 (Homo sapiens, UniProt P05177); assay: Inhibition of CYP1A2 (unknown origin) using phenacetin as substrate; assay type: ADME
T2 sequence (P05177 whole entry): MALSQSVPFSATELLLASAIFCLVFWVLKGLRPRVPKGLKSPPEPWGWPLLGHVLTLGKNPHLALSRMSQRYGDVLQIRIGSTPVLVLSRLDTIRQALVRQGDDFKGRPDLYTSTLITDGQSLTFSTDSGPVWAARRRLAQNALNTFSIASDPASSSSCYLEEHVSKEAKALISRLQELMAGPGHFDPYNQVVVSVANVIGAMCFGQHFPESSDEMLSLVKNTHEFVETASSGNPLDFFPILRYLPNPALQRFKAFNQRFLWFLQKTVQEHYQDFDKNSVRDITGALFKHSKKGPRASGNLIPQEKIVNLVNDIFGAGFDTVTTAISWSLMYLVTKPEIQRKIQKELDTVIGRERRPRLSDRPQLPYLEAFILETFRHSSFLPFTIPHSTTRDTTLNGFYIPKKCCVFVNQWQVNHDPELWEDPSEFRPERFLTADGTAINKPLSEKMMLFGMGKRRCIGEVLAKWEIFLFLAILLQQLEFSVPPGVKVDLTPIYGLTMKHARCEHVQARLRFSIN

[26] = Protein binding in human plasma at 1 uM; assay type: ADME, cell-free; details: read-out: PPB
[27] = target: T3, Glucagon receptor (Homo sapiens, UniProt P47871); assay: Inhibition of human full length GCGR transfected in HEK293 cells assessed as reduction in glucagon-induced cAMP response by LANCE TR-FRET assay; assay type: functional, cell-based
[28] = Oral bioavailability in C57 mouse at 20 mg/kg; assay type: ADME, organism-based; details: in vivo
[29] = AUClast in dog at 2 mg/kg, iv or 10 mg/kg, po; assay type: ADME, organism-based, Canis lupus familiaris; details: in vivo
[30] = Clearance in dog at 2 mg/kg, iv or 10 mg/kg, po; assay type: ADME, organism-based, Canis lupus familiaris; details: in vivo
[31] = Clearance in Sprague-Dawley rat at 2 mg/kg, iv or 10 mg/kg, po; assay type: ADME, organism-based; details: in vivo
[32] = Half life in C57 mouse at 20 mg/kg, po; assay type: ADME, organism-based; details: in vivo
[33] = Clearance in C57 mouse at 5 mg/kg, iv or 20 mg/kg, po; assay type: ADME, organism-based; details: in vivo
[34] = target: T1, Cytochrome P450 3A4; assay: Inhibition of CYP3A4 (unknown origin) using testosterone as substrate; assay type: ADME
[35] = tested on: Canis familiaris; assay: Antidiabetic activity in Beagle dog assessed as reduction in blood glucose AUC at 10 mg/kg, po administered via gavage as single dose 90 mins prior to glucagon challenge by glucometer analysis; assay type: functional, organism-based; details: Canis lupus familiaris
[36] = Half life in dog at 10 mg/kg, po; assay type: ADME, organism-based, Canis lupus familiaris; details: in vivo
[37] = target: T3, Glucagon receptor; assay: Potency index, ratio of Ki of 3-[[4-[(1R)-1-[5-[2-Chloro4-(trifluoromethyl)phenyl]indazol-1-yl]-3-methyl-butyl]benzoyl]amino]propanoic acid to Ki of compound for human full length GCGR transfected in HEK293 cells assessed as reduction in glucagon-induced cAMP response by LANCE TR-FRET assay; assay type: functional, cell-based

T3 sequence (P47871 whole entry): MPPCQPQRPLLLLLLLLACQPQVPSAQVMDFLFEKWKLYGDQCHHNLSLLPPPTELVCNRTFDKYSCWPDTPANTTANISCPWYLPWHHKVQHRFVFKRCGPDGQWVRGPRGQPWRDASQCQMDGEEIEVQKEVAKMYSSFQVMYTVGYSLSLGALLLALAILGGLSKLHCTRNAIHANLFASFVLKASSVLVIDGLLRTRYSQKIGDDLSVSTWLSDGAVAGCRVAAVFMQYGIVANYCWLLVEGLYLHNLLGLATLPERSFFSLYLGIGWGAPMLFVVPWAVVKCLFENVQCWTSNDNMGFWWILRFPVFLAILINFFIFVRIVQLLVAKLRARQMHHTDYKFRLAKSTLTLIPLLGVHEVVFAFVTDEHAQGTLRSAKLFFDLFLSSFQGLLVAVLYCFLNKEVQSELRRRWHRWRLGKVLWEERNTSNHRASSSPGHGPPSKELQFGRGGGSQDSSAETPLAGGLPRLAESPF
T1 sequence (P08684 whole entry): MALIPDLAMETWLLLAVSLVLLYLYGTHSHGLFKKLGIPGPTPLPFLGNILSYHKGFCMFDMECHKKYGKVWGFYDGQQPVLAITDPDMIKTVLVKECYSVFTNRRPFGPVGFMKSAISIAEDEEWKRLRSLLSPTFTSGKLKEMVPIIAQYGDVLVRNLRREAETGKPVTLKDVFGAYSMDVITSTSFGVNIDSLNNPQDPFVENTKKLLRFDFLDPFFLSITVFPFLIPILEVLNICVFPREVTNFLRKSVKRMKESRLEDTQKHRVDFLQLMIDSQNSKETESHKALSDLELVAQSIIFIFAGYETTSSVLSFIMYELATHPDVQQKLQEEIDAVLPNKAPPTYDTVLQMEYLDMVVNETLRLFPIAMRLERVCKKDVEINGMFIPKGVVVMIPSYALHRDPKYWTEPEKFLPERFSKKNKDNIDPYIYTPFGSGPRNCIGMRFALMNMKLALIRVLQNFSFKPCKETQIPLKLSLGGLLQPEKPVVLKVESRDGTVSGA
Cytochrome P450 2C9, sequence (P11712 whole entry): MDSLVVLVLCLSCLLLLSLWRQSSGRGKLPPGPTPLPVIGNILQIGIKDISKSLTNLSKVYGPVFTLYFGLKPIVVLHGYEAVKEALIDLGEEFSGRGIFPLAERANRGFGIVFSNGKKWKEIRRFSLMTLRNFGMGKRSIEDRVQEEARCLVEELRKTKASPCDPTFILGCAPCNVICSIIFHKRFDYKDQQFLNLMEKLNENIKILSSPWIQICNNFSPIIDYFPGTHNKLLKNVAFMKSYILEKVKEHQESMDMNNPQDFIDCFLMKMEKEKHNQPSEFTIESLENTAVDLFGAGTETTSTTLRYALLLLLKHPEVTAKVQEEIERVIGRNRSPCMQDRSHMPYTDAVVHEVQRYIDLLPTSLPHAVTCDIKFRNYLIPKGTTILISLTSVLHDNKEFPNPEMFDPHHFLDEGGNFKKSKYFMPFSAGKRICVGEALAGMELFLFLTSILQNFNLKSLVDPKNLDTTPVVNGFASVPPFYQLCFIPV
Cytochrome P450 2D6, sequence (P10635 whole entry): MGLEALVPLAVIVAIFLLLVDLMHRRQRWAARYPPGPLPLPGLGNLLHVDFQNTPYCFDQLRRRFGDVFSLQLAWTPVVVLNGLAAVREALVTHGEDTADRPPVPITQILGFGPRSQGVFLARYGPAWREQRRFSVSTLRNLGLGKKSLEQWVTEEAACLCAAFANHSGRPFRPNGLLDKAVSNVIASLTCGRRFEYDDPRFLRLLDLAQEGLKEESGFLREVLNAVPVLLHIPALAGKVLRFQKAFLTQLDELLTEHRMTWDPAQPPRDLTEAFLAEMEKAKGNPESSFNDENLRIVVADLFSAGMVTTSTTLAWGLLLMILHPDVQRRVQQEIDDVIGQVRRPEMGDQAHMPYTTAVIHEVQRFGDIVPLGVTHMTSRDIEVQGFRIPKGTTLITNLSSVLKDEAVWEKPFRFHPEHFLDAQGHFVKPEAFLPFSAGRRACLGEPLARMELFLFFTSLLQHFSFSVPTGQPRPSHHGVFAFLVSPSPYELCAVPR
Cytochrome P450 2C19, sequence (P33261 whole entry): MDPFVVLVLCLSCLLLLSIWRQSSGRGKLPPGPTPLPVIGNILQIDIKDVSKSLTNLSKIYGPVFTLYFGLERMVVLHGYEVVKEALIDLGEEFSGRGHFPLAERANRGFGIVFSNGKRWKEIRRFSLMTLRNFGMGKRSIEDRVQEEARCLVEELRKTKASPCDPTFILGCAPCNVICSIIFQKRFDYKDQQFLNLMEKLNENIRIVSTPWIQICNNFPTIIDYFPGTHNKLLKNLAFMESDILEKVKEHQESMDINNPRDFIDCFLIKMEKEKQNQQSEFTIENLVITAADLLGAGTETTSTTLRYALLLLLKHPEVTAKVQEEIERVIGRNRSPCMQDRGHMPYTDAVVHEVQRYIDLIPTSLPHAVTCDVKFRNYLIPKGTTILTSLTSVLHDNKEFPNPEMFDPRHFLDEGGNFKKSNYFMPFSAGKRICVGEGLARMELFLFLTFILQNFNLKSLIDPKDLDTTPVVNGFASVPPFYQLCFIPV

Structure (SMILES): Cc1cc(C(F)(F)F)ccc1-c1ccc2nn([C@@H](CC(C)C)c3ccc(C(=O)NCCC(=O)O)cc3)cc2c1C
- remaining at 10 min, 1 µM [1]: 50%
- remaining at 10 min, 1 µM [2]: 110%
- remaining at 10 min, 1 µM [3]: 64%
- remaining at 10 min, 1 µM [4]: 107%

Structure (SMILES): CC(C)C[C@@H](c1ccc(C(=O)NCCC(=O)O)cc1)n1ncc2cc(-c3ccc(C(F)(F)F)cc3)ccc21
- Ki [27]: 460 nM

Structure (SMILES): CC(C)CC(c1ccc(C(=O)NCCC(=O)O)cc1)n1ncc2cc(-c3ccc(C(F)(F)F)cc3)ccc21 (racemic)
- Ki [27]: 125 nM

Structure (SMILES): CC(C)C[C@@H](c1ccc(C(=O)NCCC(=O)O)cc1)n1ncc2cc(-c3ccc(C(F)(F)F)cc3Cl)ccc21
- remaining at 10 min, 1 µM [1]: 107%
- remaining at 10 min, 1 µM [2]: 59%
- Stability ([3]; microsomes, 10 min, 1 µM): 121%
- Ratio Ki [37]: 15
- remaining at 10 min, 1 µM [4]: 81%

Further lines, with some results ahead:

- IC50 [5]: > 10000 nM
- half-life [7]: 1.9 h
- AUC(0-t) [8]: 1.4 µM·h
- half-life [9]: 7.7 h
- Cmax [10]: 21.9 µM
- IC50 [11]: > 10000 nM
- remaining at 10 min, 1 µM [1]: 97%
- IC50 [12]: > 10000 nM
- Vd [13]: 0.17 L/kg
- Cmax [14]: 0.2 µM
- IC50 [15]: > 10000 nM
- bioavailability [16]: 13.2%
- remaining at 10 min, 1 µM [2]: 118%
- half-life [17]: 2.8 h
- Vd [18]: 2.24 L/kg
- Cmax [19]: 7.6 µM
- Ki [20]: 90 nM
- bioavailability [21]: 35.7%
- half-life [22]: 5.5 h
- remaining at 10 min, 1 µM [3]: 75%
- AUC(0-t) [23]: 44.9 µM·h
- Vd [24]: 2.46 L/kg
- IC50 [25]: > 10000 nM
- fraction unbound at 1 µM [26]: 0.0001
- Ki [27]: 23 nM
- bioavailability [28]: 78.6%
- AUC(0-t) [29]: 248 µM·h
- clearance [30]: 0.42 mL/min/kg
- clearance [31]: 26.5 mL/min/kg
- half-life [32]: 3.1 h
- clearance [33]: 10.2 mL/min/kg
- IC50 [34]: > 10000 nM
- half-life [36]: 7.3 h
- remaining at 10 min, 1 µM [4]: 107%
Structure (SMILES): Cc1c(-c2ccc(C(F)(F)F)cc2Cl)ccc2nn([C@@H](CC(C)C)c3ccc(C(=O)NCCC(=O)O)cc3)cc12
- inhibition [6]: Active
- inhibition [35]: Active

- remaining at 10 min, 1 µM [1]: 76%
- remaining at 10 min, 1 µM [2]: 116%
- remaining at 10 min, 1 µM [3]: 79%
- remaining at 10 min, 1 µM [4]: 100%
Structure (SMILES): COc1c(-c2ccc(C(F)(F)F)cc2Cl)ccc2nn([C@H](CC(C)C)c3ccc(C(=O)NCCC(=O)O)cc3)cc12

- remaining at 10 min, 1 µM [1]: 82%
- remaining at 10 min, 1 µM [2]: 89%
- remaining at 10 min, 1 µM [3]: 76%
- remaining at 10 min, 1 µM [4]: 84%
Structure (SMILES): COc1c(-c2ccc(C(F)(F)F)cc2Cl)ccc2nn([C@@H](CC(C)C)c3ccc(C(=O)NCCC(=O)O)cc3)cc12
